Converted amounts (≈) assume the structure as drawn. The source made the active and inactive calls. The rule behind the calls is not given here.
Experiments:
[1] = Protein binding in dog plasma assessed as fraction unbound at 1 uM incubated for 6 hrs by rapid equilibrium dialysis based LC-MS/MS analysis; assay type: ADME, cell-free, Canis lupus familiaris
[2] = In vivo inhibition of hERG in guinea pig assessed as increase in QTc interval at 27 ug/ml, iv; assay type: toxicity, organism-based, Cavia porcellus; conditions: at 27 µg/mL
[3] = Metabolic stability in human hepatocyte assessed as M2 metabolite formation at 1 uM and measured upto 15 mins in presence of NADPH regenerating system by LC-MS/MS analysis; assay type: ADME, cell-based; conditions: hepatocytes, 0.25 h
[4] = Tmax in Wistar rat at 3 mg/kg,iv or 3 mg/kg, po; assay type: ADME, organism-based; conditions: in vivo
[5] = target: T1, C-X-C chemokine receptor type 3 (Homo sapiens, UniProt P49682); experiment: Antagonist activity at human CXCR3 expressed in CHO-K1 cells assessed as reduction in CXCL11 induced calcium flux by FLIPR method; assay type: cell-based
T1 sequence (P49682 whole entry): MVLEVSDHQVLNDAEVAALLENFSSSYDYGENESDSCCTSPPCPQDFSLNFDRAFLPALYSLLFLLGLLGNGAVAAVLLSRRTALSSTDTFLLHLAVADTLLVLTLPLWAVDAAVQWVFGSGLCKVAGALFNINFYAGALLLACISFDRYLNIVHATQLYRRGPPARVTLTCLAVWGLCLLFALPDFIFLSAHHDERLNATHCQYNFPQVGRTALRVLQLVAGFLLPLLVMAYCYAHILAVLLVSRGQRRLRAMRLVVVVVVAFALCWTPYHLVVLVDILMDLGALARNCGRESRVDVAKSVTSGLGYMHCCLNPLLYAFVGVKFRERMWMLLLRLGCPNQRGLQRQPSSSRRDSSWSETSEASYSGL

[6] = Cmin in LPS-induced DBA/1 mouse plasma at 0.06 microg/g, po bid preincubated for 3 days followed by LPS stimulation for 30 mins and measured after 72 hrs by flow cytometry; assay type: ADME, organism-based; conditions: dose 0.06 µg/g, time 6 day, read-out: Cmin
[7] = target: C-C chemokine receptor type 7 (Homo sapiens) (UniProt P32248); experiment: Binding affinity to CCR7 (unknown origin) at 10 uM by radioligand binding assay
[8] = Metabolic stability in dog hepatocyte assessed as M1 metabolite formation at 1 uM and measured upto 15 mins in presence of NADPH regenerating system by LC-MS/MS analysis; assay type: ADME, cell-based, Canis lupus familiaris; conditions: hepatocytes, 0.25 h
[9] = In vivo inhibition of hERG in iv dosed dog assessed as change in PR interval; assay type: toxicity, organism-based, Canis lupus familiaris
Cytochrome P450 3A4 = Cytochrome P450 3A4 (Homo sapiens, UniProt P08684); experiment: Time dependent inhibition of CYP3A4 (unknown origin); assay type: ADME
[10] = target: T1, C-X-C chemokine receptor type 3; experiment: Antagonist activity at human CXCR3 expressed in CHO-K1 cells assessed as reduction in CXCL9 induced calcium flux by FLIPR method; assay type: cell-based
[11] = Metabolic stability in dog hepatocytes assessed as intrinsic clearance per 10^6 cells at 1 uM by LC-MS/MS analysis; assay type: ADME, cell-based, Canis lupus familiaris, Hepatocyte
[12] = target: T2, C-X-C chemokine receptor type 3 (Mus musculus) (UniProt O88410); experiment: In vivo antagonist activity at CXCR3 in LPS-induced DBA/1 mouse model assessed as reduction in mouse CXCL10-mediated chemotaxis in CD8+ T cells at 0.06 microg/g, po bid preincubated for 3 days followed by LPS stimulation for 30 mins and measured after 3 days by flow cytometry; assay type: functional, organism-based; set-up: scale not given: the % may be the effect or the level left; conditions: T-cell, dose 0.06 µg/g, time 6.0 day
T2 sequence (whole entry): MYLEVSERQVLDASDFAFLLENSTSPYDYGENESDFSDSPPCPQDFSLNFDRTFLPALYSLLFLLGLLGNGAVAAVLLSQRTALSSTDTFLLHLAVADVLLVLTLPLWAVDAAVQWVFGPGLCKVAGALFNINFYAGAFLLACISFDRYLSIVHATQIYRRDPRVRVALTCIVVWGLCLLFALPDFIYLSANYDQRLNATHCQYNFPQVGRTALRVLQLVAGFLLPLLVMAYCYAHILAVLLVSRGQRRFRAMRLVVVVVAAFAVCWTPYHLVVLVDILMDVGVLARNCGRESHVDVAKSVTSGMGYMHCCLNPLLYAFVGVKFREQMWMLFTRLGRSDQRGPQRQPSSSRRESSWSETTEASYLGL

[13] = target: T1, C-X-C chemokine receptor type 3; experiment: Antagonist activity at human CXCR3 expressed in CHO-K1 cells assessed as reduction in CXCL10 induced calcium flux by FLIPR method; assay type: cell-based
[14] = target: C-C chemokine receptor type 5 (Homo sapiens) (UniProt P51681); experiment: Binding affinity to CCR5 (unknown origin) at 10 uM by radioligand binding assay
[15] = Metabolic stability in human hepatocytes assessed as intrinsic clearance per 10^6 cells at 1 uM by LC-MS/MS analysis; assay type: ADME, cell-based, Hepatocyte
[16] = target: C-X-C chemokine receptor type 4 (Homo sapiens) (UniProt P61073); experiment: Binding affinity to CXCR4 (unknown origin) at 10 uM by radioligand binding assay
[17] = Cmax in LPS-induced DBA/1 mouse plasma at 0.06 microg/g, po bid preincubated for 3 days followed by LPS stimulation for 30 mins and measured after 72 hrs by flow cytometry; assay type: ADME, organism-based; set-up: time 6 day, dose 0.06 µg/g, route po; conditions: 0.06 µg/g
[18] = target: Chemerin-like receptor 1 (Homo sapiens) (UniProt Q99788); experiment: Binding affinity to ChemR23 (unknown origin) at 10 uM by radioligand binding assay
[19] = Solubility of compound in FaSSIF at 37 degreeC; assay type: ADME
[20] = Metabolic stability in dog liver microsomes assessed as M3 metabolite formation at 1 uM and measured upto 15 mins in presence of NADPH regenerating system by LC-MS/MS analysis; assay type: ADME, Canis lupus familiaris, Microsome; conditions: 0.25 h
[21] = Metabolic stability in dog hepatocyte assessed as M2 metabolite formation at 1 uM and measured upto 15 mins in presence of NADPH regenerating system by LC-MS/MS analysis; assay type: ADME, cell-based, Canis lupus familiaris; conditions: hepatocytes, 0.25 h
[22] = target: T3, C-X-C chemokine receptor type 3 (Mus musculus, UniProt O88410); experiment: Antagonist activity at CXCR3 in DBA/1 mouse whole blood assessed as receptor internalization incubated for 30 mins in presence of CXCL10 by flow cytometric analysis; assay type: tissue-based
T3 sequence (O88410 whole entry): T2 sequence (whole entry)

[23] = Cardiotoxicity in human iPSC-derived cardiomyocytes assessed as slowing of spontaneous beating rate at 4.1 ug/ml; assay type: toxicity, cell-based; conditions: cardiac muscle cell, dose 4.1 µg/ml
[24] = Glutathione reactivity assessed as GSH-adduct formation by dansyl-glutathione trapping assay; assay type: physicochemical
[25] = Metabolic stability in human hepatocyte assessed as M3 metabolite formation at 1 uM and measured upto 15 mins in presence of NADPH regenerating system by LC-MS/MS analysis; assay type: ADME, cell-based; conditions: hepatocytes, 0.25 h
[26] = Cmin in LPS-induced DBA/1 mouse plasma at 0.02 microg/g, po bid preincubated for 3 days followed by LPS stimulation for 30 mins and measured after 72 hrs by flow cytometry; assay type: ADME, organism-based; conditions: dose 0.02 µg/g, time 3 day, read-out: Cmin
[27] = Metabolic stability in rat hepatocyte assessed as M3 metabolite formation at 1 uM and measured upto 15 mins in presence of NADPH regenerating system by LC-MS/MS analysis; assay type: ADME, cell-based; conditions: hepatocytes, 0.25 h
[28] = Genotoxicity in Salmonella typhimurium TA98 at 5000 ug; assay type: toxicity; conditions: salmonella enterica subsp. enterica serovar typhimurium; dose 5000 µg
[29] = Solubility of compound in FeSSIF at 37 degreeC; assay type: ADME

Chain of Chemerin-like receptor 1 (Homo sapiens) (Q99788 whole entry): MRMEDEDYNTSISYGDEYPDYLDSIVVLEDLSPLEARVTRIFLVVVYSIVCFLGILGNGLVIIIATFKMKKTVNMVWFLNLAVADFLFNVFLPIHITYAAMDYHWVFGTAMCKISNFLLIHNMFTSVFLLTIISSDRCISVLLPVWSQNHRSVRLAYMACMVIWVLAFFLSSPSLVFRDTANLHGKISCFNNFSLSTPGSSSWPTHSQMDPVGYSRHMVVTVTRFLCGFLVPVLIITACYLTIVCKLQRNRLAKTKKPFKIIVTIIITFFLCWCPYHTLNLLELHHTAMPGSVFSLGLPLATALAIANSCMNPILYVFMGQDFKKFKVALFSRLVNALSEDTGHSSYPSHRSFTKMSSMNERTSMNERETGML
Chain of C-C chemokine receptor type 5 (Homo sapiens) (P51681 whole entry, looked up): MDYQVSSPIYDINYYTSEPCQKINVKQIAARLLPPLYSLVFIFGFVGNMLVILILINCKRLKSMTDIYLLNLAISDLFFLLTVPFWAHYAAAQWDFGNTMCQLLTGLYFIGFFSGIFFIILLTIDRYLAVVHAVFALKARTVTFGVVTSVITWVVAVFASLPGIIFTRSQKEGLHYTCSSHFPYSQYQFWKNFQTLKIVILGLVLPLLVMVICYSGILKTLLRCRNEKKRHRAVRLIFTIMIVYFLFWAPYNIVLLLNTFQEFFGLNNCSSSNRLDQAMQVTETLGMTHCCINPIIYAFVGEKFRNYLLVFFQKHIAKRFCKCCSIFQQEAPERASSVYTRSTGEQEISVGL
Chain of Cytochrome P450 3A4 (P08684 whole entry): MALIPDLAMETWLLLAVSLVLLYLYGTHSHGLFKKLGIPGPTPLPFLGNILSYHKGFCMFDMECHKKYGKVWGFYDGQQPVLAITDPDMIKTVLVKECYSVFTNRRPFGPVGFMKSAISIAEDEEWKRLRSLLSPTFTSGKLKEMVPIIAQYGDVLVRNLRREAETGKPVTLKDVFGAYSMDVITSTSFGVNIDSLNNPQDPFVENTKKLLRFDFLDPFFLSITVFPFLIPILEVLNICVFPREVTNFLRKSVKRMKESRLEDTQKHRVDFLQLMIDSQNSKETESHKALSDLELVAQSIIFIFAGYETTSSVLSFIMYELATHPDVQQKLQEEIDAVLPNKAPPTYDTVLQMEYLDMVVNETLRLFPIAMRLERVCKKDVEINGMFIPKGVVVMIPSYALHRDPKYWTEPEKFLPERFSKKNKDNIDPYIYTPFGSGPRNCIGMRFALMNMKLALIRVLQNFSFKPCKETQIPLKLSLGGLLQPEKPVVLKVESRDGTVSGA
Chain of C-X-C chemokine receptor type 4 (Homo sapiens) (P61073 whole entry): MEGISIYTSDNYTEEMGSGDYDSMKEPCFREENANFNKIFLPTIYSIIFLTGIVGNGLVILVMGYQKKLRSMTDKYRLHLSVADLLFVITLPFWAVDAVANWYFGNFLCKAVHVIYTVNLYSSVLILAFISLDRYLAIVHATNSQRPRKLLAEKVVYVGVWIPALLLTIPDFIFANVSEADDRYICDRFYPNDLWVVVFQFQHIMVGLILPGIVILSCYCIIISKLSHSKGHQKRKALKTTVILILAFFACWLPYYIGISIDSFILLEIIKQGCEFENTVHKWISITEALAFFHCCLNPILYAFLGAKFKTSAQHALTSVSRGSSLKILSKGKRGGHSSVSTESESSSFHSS
Chain of C-C chemokine receptor type 7 (Homo sapiens) (P32248 whole entry): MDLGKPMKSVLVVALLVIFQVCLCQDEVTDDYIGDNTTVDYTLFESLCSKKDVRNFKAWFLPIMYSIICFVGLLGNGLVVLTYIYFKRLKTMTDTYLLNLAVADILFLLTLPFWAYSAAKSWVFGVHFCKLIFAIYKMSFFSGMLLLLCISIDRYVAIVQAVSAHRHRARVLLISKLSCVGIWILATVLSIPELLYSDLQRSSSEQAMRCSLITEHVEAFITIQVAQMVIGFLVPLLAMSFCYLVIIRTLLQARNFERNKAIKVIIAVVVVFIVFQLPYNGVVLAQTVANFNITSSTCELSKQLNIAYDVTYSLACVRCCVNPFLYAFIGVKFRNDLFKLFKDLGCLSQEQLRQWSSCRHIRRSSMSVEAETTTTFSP

Cc1ncn(CC(=O)N2CCN(c3sc(C(F)(F)F)nc3-c3cnc(C(F)(F)F)nc3)C[C@H]2CCO)n1
fraction unbound at 6 h, 1 µM [1]: 0.34 | inhibition (INH) [2]: Toxic | Stability [3]: Unstable | Tmax [4]: 30 min | IC50 [5]: 5.3 nM | concentration at 72 h [6]: 267 ng/mL | Activity [7]: inactive | Stability [8]: Unstable | inhibition (INH) [9]: Non-Toxic | IC50 (Cytochrome P450 3A4): > 50000 nM | IC50 [10]: 3.3 nM | CLH [11]: < 2 µL/min/mg | Activity [12]: 55% | IC50 [13]: 3.2 nM | Activity [14]: inactive | CLH [15]: < 2 µL/min/mg | Activity [16]: inactive | Cmax [17]: 559 ng/mL | Activity [18]: inactive | solubility [19]: 718 µg/mL (≈ 1300 µM) | Stability [20]: Unstable | Stability [21]: Unstable | IC50 [22]: 161 nM | Activity [23]: Toxic | Activity [24]: Not Active | Stability [25]: Unstable | concentration at 72 h [26]: 99 ng/mL | Stability [27]: Unstable | Activity [28]: Non-Toxic | solubility [29]: 1250 µg/mL (≈ 2270 µM)
